{"source": "patent US20160220569A1", "about": "“CDK4/6 Inhibitor Dosage Formulations For The Protection Of Hematopoietic Stem And Progenitor Cells During Chemotherapy” (G1 Therapeutics, Inc., priority 2015, published 2016)", "experiment": "14-day oral gavage toxicokinetic study in rats", "type": "in vivo", "conditions": "both sexes, rat, plasma, po; for concentration at 0.5 h / concentration at 1 h / concentration at 2 h / concentration at 4 h / concentration at 8 h / concentration at 12 h / concentration at 24 h: Mean Compound 1 Plasma Concentration, rats, Overall; for half-life: read-out: t½ (converted)", "method": "Plasma was obtained from blood samples collected from rats in a composite sampling scheme, with 3 samples collected per sex, per dose, at each target collection time, as illustrated in Table 21 to Table 25. Samples were collected from the vehicle control group on Day 1 and Day 14 at 3 hour after administration. […] Blood samples were collected in tubes containing K3EDTA as an anticoagulant and placed on ice until processed to plasma via centrifugation. Samples were stored frozen at −80° C. until shipment to the bioanalytical laboratory for analysis.\nThe following parameters were determined:\nCmax: Maximum observed plasma concentration (ng/mL).\nA value of 0 ng/mL was assigned to all values below the lower limit of quantitation (BLQ, <10.0 ng/mL).\nAUC(0-inf): Area under the plasma concentration vs. time curve extrapolated from 0 to infinity (ng*h/mL), calculated as AUC(0-t)+AUC(t-inf) where AUC(t-inf) is calculated as last measurable concentration (CLast) divided by ke, where ke is the elimination rate constant determined by linear regression of the last three analytically measured points on the log plasma concentration vs. time curve. The selection criteria of the data points for inclusion in the calculation of ke required that at least three data points representing the terminal phase (after Tmax) were regressed and that R2≧0.850 when rounded.\nCL: Clearance (L/h/kg), calculated as the dose divided by AUC(0-t).\nVd: Volume of distribution (L/kg), calculated as dose divided by the product of ke and AUC(0-inf).\nVdss: Steady state volume of distribution (L/kg), calculated as clearance […] mean residence time, where mean residence time is calculated as the area under the first moment curve divided by AUC(0-t).\nt½: Elimination half-life (h), calculated as ln(2)/ke, where ke is the elimination rate constant determined by linear regression. Half-life was defined as not determined if regression criteria (specified in AUC(0-inf) above) were not met.\nCmax/Dose: Normalized Cmax, calculated as Cmax divided by total dose.\nAUC/Dose: Normalized AUC, calculated as AUC(0-t) divided by total dose.\nii. Statistical Analysis Mean and standard deviation (SD) were calculated in Watson. Values of BLQ were assigned a value of 0 ng/mL for mean calculations. Concentration values and derived TK parameters were reported to three significant figures.", "key": {"[1]": {"conditions": "2 mg/kg, oral 2 mg/kg, Study Day 1, Overall"}, "[2]": {"conditions": "2 mg/kg, oral 2 mg/kg, Study Day 14, Overall"}, "[3]": {"conditions": "5 mg/kg, oral 5 mg/kg, Study Day 1, Overall"}, "[4]": {"conditions": "5 mg/kg, oral 5 mg/kg, Study Day 14, Overall"}}, "note": "Read-outs that look alike come from different tables or passages of the source.", "data": [{"smiles": "CN1CCN(c2ccc(Nc3ncc4cc5n(c4n3)C3(CCCCC3)CNC5=O)nc2)CC1", "note": "[Compound 1, 2′-((5-(4-methylpiperazin-1-yl)pyridin-2-yl)amino)-7′,8′-dihydro-6′H-spiro[cyclohexane-1,9′-pyrazino[1′,2′:1,5]pyrrolo[2,3-d]pyrimidin]-6′-one]", "values": [{"measurement": "concentration at 0.5 h", "setting": "2 mg/kg, oral 2 mg/kg, Day 1, 0.5 h", "value": 0.0837, "unit": "µg/mL"}, {"measurement": "concentration at 1 h", "setting": "2 mg/kg, oral 2 mg/kg, Day 1, 1 h", "value": 0.0743, "unit": "µg/mL"}, {"measurement": "concentration at 2 h", "setting": "2 mg/kg, oral 2 mg/kg, Day 1, 2 h", "value": 0.149, "unit": "µg/mL"}, {"measurement": "concentration at 4 h", "setting": "2 mg/kg, oral 2 mg/kg, Day 1, 4 h", "value": 0.15, "unit": "µg/mL"}, {"measurement": "concentration at 8 h", "setting": "2 mg/kg, oral 2 mg/kg, Day 1, 8 h", "value": 0.0936, "unit": "µg/mL"}, {"measurement": "concentration at 12 h", "setting": "2 mg/kg, oral 2 mg/kg, Day 1, 12 h", "value": 0.0679, "unit": "µg/mL"}, {"measurement": "concentration at 24 h", "setting": "2 mg/kg, oral 2 mg/kg, Day 1, 24 h", "value": 0.0065, "unit": "µg/mL"}, {"measurement": "concentration at 0.5 h", "setting": "2 mg/kg, oral 2 mg/kg, Day 14, 0.5 h", "value": 0.0882, "unit": "µg/mL"}, {"measurement": "concentration at 1 h", "setting": "2 mg/kg, oral 2 mg/kg, Day 14, 1 h", "value": 0.0785, "unit": "µg/mL"}, {"measurement": "concentration at 2 h", "setting": "2 mg/kg, oral 2 mg/kg, Day 14, 2 h", "value": 0.142, "unit": "µg/mL"}, {"measurement": "concentration at 4 h", "setting": "2 mg/kg, oral 2 mg/kg, Day 14, 4 h", "value": 0.119, "unit": "µg/mL"}, {"measurement": "concentration at 8 h", "setting": "2 mg/kg, oral 2 mg/kg, Day 14, 8 h", "value": 0.103, "unit": "µg/mL"}, {"measurement": "concentration at 12 h", "setting": "2 mg/kg, oral 2 mg/kg, Day 14, 12 h", "value": 0.0519, "unit": "µg/mL"}, {"measurement": "concentration at 24 h", "setting": "2 mg/kg, oral 2 mg/kg, Day 14, 24 h", "value": 0.00432, "unit": "µg/mL"}, {"measurement": "AUC(0-inf)", "setting": "[1]", "value": 1.77, "unit": "µg·h/mL"}, {"measurement": "AUC(0-t)", "setting": "[1]", "value": 1.73, "unit": "µg·h/mL"}, {"measurement": "Cmax", "setting": "[1]", "value": 0.15, "unit": "µg/mL"}, {"measurement": "Tmax", "setting": "[1]", "value": 4, "unit": "h"}, {"measurement": "half-life", "setting": "[1]", "value": 4, "unit": "h"}, {"measurement": "AUC(0-inf)", "setting": "[2]", "value": 1.55, "unit": "µg·h/mL"}, {"measurement": "AUC(0-t)", "setting": "[2]", "value": 1.53, "unit": "µg·h/mL"}, {"measurement": "Cmax", "setting": "[2]", "value": 0.142, "unit": "µg/mL"}, {"measurement": "Tmax", "setting": "[2]", "value": 2, "unit": "h"}, {"measurement": "half-life", "setting": "[2]", "value": 3.46, "unit": "h"}, {"measurement": "concentration at 0.5 h", "setting": "5 mg/kg, oral 5 mg/kg, Day 1, 0.5 h", "value": 0.252, "unit": "µg/mL"}, {"measurement": "concentration at 1 h", "setting": "5 mg/kg, oral 5 mg/kg, Day 1, 1 h", "value": 0.3, "unit": "µg/mL"}, {"measurement": "concentration at 2 h", "setting": "5 mg/kg, oral 5 mg/kg, Day 1, 2 h", "value": 0.391, "unit": "µg/mL"}, {"measurement": "concentration at 4 h", "setting": "5 mg/kg, oral 5 mg/kg, Day 1, 4 h", "value": 0.445, "unit": "µg/mL"}, {"measurement": "concentration at 8 h", "setting": "5 mg/kg, oral 5 mg/kg, Day 1, 8 h", "value": 0.318, "unit": "µg/mL"}, {"measurement": "concentration at 12 h", "setting": "5 mg/kg, oral 5 mg/kg, Day 1, 12 h", "value": 0.168, "unit": "µg/mL"}, {"measurement": "concentration at 24 h", "setting": "5 mg/kg, oral 5 mg/kg, Day 1, 24 h", "value": 0.0221, "unit": "µg/mL"}, {"measurement": "concentration at 0.5 h", "setting": "5 mg/kg, oral 5 mg/kg, Day 14, 0.5 h", "value": 0.348, "unit": "µg/mL"}, {"measurement": "concentration at 1 h", "setting": "5 mg/kg, oral 5 mg/kg, Day 14, 1 h", "value": 0.389, "unit": "µg/mL"}, {"measurement": "concentration at 2 h", "setting": "5 mg/kg, oral 5 mg/kg, Day 14, 2 h", "value": 0.47, "unit": "µg/mL"}, {"measurement": "concentration at 4 h", "setting": "5 mg/kg, oral 5 mg/kg, Day 14, 4 h", "value": 0.43, "unit": "µg/mL"}, {"measurement": "concentration at 8 h", "setting": "5 mg/kg, oral 5 mg/kg, Day 14, 8 h", "value": 0.262, "unit": "µg/mL"}, {"measurement": "concentration at 12 h", "setting": "5 mg/kg, oral 5 mg/kg, Day 14, 12 h", "value": 0.151, "unit": "µg/mL"}, {"measurement": "concentration at 24 h", "setting": "5 mg/kg, oral 5 mg/kg, Day 14, 24 h", "value": 0.018, "unit": "µg/mL"}, {"measurement": "AUC(0-inf)", "setting": "[3]", "value": 5.15, "unit": "µg·h/mL"}, {"measurement": "AUC(0-t)", "setting": "[3]", "value": 5.02, "unit": "µg·h/mL"}, {"measurement": "Cmax", "setting": "[3]", "value": 0.445, "unit": "µg/mL"}, {"measurement": "Tmax", "setting": "[3]", "value": 4, "unit": "h"}, {"measurement": "half-life", "setting": "[3]", "value": 4.14, "unit": "h"}, {"measurement": "AUC(0-inf)", "setting": "[4]", "value": 4.93, "unit": "µg·h/mL"}, {"measurement": "AUC(0-t)", "setting": "[4]", "value": 4.82, "unit": "µg·h/mL"}, {"measurement": "Cmax", "setting": "[4]", "value": 0.47, "unit": "µg/mL"}, {"measurement": "Tmax", "setting": "[4]", "value": 2, "unit": "h"}, {"measurement": "half-life", "setting": "[4]", "value": 4.08, "unit": "h"}, {"measurement": "concentration at 0.5 h", "setting": "15 mg/kg, oral 15 mg/kg, Day 1, 0.5 h", "value": 0.899, "unit": "µg/mL"}, {"measurement": "concentration at 1 h", "setting": "15 mg/kg, oral 15 mg/kg, Day 1, 1 h", "value": 1.17, "unit": "µg/mL"}, {"measurement": "concentration at 2 h", "setting": "15 mg/kg, oral 15 mg/kg, Day 1, 2 h", "value": 1.49, "unit": "µg/mL"}, {"measurement": "concentration at 4 h", "setting": "15 mg/kg, oral 15 mg/kg, Day 1, 4 h", "value": 1.43, "unit": "µg/mL"}, {"measurement": "concentration at 8 h", "setting": "15 mg/kg, oral 15 mg/kg, Day 1, 8 h", "value": 1.23, "unit": "µg/mL"}, {"measurement": "concentration at 12 h", "setting": "15 mg/kg, oral 15 mg/kg, Day 1, 12 h", "value": 0.767, "unit": "µg/mL"}, {"measurement": "concentration at 24 h", "setting": "15 mg/kg, oral 15 mg/kg, Day 1, 24 h", "value": 0.0845, "unit": "µg/mL"}]}]}
